Test results: PubChem BioAssay AID248 (DTP/NCI, 2004)
Several values for one entry are separate records, joined by “and”; a condition that tells them apart may be missing. Equal entries are not always repeated. Toxic doses and inconclusive results are not listed. No stated cut-off is given here; in the data, active means T/C of 150% or more; inactive means T/C below 125%.

Tested on: L1210 leukemia ip in BDF1 mice, survival T/C
Assay: NCI In Vivo Anticancer Drug Screen. Data for tumor model L1210 Leukemia (intraperitoneal) in B6D2F1 (BDF1) mice
Settings: endpoint: mean survival time, higher = longer survival
In short: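 Mice bearing the transplanted tumor received compound or vehicle. Survival of the treated group was divided by that of the vehicle-treated control group to give the ratio.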

[1] = dose: 50.0 mg/kg/injection, schedule: Q01DX001 (ip), vehicle: Klucel (hydroxypropylcellulose) (HPC)
[2] = dose: 100.0 mg/kg/injection, schedule: Q01DX001 (ip), vehicle: Klucel (hydroxypropylcellulose) (HPC)
[3] = dose: 200.0 mg/kg/injection, schedule: Q01DX001 (ip), vehicle: Klucel (hydroxypropylcellulose) (HPC)
[4] = dose: 100.0 mg/kg/injection, schedule: Q04DX003 (ip), vehicle: saline
[5] = dose: 200.0 mg/kg/injection, schedule: Q04DX003 (ip), vehicle: saline
[6] = dose: 100.0 mg/kg/injection, schedule: Q01DX009 (ip), vehicle: Klucel (hydroxypropylcellulose) (HPC)
[7] = dose: 100.0 mg/kg/injection, schedule: Q04DX003 (ip), vehicle: Klucel (hydroxypropylcellulose) (HPC)
[8] = dose: 200.0 mg/kg/injection, schedule: Q01DX009 (ip), vehicle: Klucel (hydroxypropylcellulose) (HPC)
[9] = dose: 200.0 mg/kg/injection, schedule: Q04DX003 (ip), vehicle: Klucel (hydroxypropylcellulose) (HPC)
[10] = dose: 400.0 mg/kg/injection, schedule: Q01DX009 (ip), vehicle: Klucel (hydroxypropylcellulose) (HPC)
[11] = dose: 400.0 mg/kg/injection, schedule: Q04DX003 (ip), vehicle: Klucel (hydroxypropylcellulose) (HPC)
[12] = dose: 100.0 mg/kg/injection, schedule: Q01DX009 (ip), vehicle: saline with Tween-80
[13] = dose: 200.0 mg/kg/injection, schedule: Q01DX009 (ip), vehicle: saline with Tween-80
[14] = dose: 400.0 mg/kg/injection, schedule: Q01DX009 (ip), vehicle: saline with Tween-80
[15] = dose: 50.0 mg/kg/injection, schedule: Q01DX001 (ip), vehicle: carboxymethylcellulose (CMC)
[16] = dose: 100.0 mg/kg/injection, schedule: Q01DX001 (ip), vehicle: carboxymethylcellulose (CMC)
[17] = dose: 200.0 mg/kg/injection, schedule: Q01DX001 (ip), vehicle: carboxymethylcellulose (CMC)
[18] = dose: 400.0 mg/kg/injection, schedule: Q01DX001 (ip), vehicle: carboxymethylcellulose (CMC)
[19] = dose: 100.0 mg/kg/injection, schedule: Q04DX003 (ip), vehicle: saline with Tween-80
[20] = dose: 200.0 mg/kg/injection, schedule: Q04DX003 (ip), vehicle: saline with Tween-80
[21] = dose: 400.0 mg/kg/injection, schedule: Q04DX003 (ip), vehicle: saline with Tween-80

Measured: T/C

CC1CN1CC1CO1 (centres undefined)
inactive: dose: 0.5 mg/kg/injection, schedule: Q01DX001 (ip), vehicle: saline 98 % of control | dose: 0.5 mg/kg/injection, schedule: Q01DX009 (ip), vehicle: acetone 97 % of control | dose: 0.5 mg/kg/injection, schedule: Q04DX003 (ip), vehicle: acetone 104 % of control | dose: 1.0 mg/kg/injection, schedule: Q01DX001 (ip), vehicle: saline 95 % of control | dose: 1.0 mg/kg/injection, schedule: Q01DX009 (ip), vehicle: acetone 96 % of control | dose: 1.0 mg/kg/injection, schedule: Q04DX003 (ip), vehicle: acetone 101 % of control | dose: 2.0 mg/kg/injection, schedule: Q01DX001 (ip), vehicle: saline 98 % of control | dose: 2.0 mg/kg/injection, schedule: Q01DX009 (ip), vehicle: acetone 100 % of control | dose: 2.0 mg/kg/injection, schedule: Q04DX003 (ip), vehicle: acetone 104 % of control | dose: 2.97 mg/kg/injection, schedule: Q01DX009 (ip), vehicle: acetone 97 % of control | dose: 4.5 mg/kg/injection, schedule: Q01DX009 (ip), vehicle: acetone 97 % of control | dose: 6.75 mg/kg/injection, schedule: Q01DX009 (ip), vehicle: acetone 115 % of control | dose: 9.9 mg/kg/injection, schedule: Q01DX009 (ip), vehicle: acetone 102 % of control | dose: 15.0 mg/kg/injection, schedule: Q01DX009 (ip), vehicle: acetone 100 % of control | dose: 22.5 mg/kg/injection, schedule: Q01DX009 (ip), vehicle: acetone 94 % of control

CCCCN=C([Se])NCCCC
inactive: dose: 15.0 mg/kg/injection, schedule: Q01DX015 (ip), vehicle: carboxymethylcellulose (CMC) 103 % of control | dose: 30.0 mg/kg/injection, schedule: Q01DX015 (ip), vehicle: carboxymethylcellulose (CMC) 96 % of control | dose: 60.0 mg/kg/injection, schedule: Q01DX015 (ip), vehicle: carboxymethylcellulose (CMC) 97 % of control

Cc1ccc(-n2c(O)c(N=Nc3ccc(Br)cc3)c(=O)n(-c3ccc(I)cc3)c2=S)cc1
inactive: [1] 100 % of control | [2] 109 % of control | [3] 106 % of control

CCC(=O)P(=O)(OC)OC
inactive: [4] 102 % of control | [5] 102 % of control | dose: 400.0 mg/kg/injection, schedule: Q04DX003 (ip), vehicle: saline 95 % of control

Cc1nc(SC(=N)N)nc2c1CCO2
inactive: dose: 100.0 mg/kg/injection, schedule: Q01DX001 (ip), vehicle: saline 96 % of control | dose: 200.0 mg/kg/injection, schedule: Q01DX001 (ip), vehicle: saline 97 % of control | dose: 400.0 mg/kg/injection, schedule: Q01DX001 (ip), vehicle: saline 88 % of control

Cc1cc(SCC(=O)c2ccc(Br)cc2)cc(C)[o+]1
inactive: dose: 25.0 mg/kg/injection, schedule: Q01DX009 (ip), vehicle: saline 92 % of control | dose: 50.0 mg/kg/injection, schedule: Q01DX009 (ip), vehicle: saline 107 % of control | dose: 100.0 mg/kg/injection, schedule: Q01DX009 (ip), vehicle: saline 100 % of control | [4] 97 % of control | [5] 92 % of control

CCOC(=O)c1ccc(NS(C)(=O)=O)cc1
inactive: [6] 95 % of control | [7] 114 % of control | [8] 95 % of control | [9] 102 % of control | [10] 92 % of control | [11] 100 % of control

CN(C)c1ccc(Cc2ccc(N(C)C)cc2)cc1
inactive: [12] 96 % of control | [13] 94 % of control | [14] 86 % of control

CC1CCC2C(C1)N(c1ccccc1)OC2(C)C (centres undefined)
inactive: [7] 100 % of control | [9] 94 % of control | [11] 102 % of control

O=C(Nc1ccc(S(=O)(=O)F)cc1)/C(=C/c1ccc([N+](=O)[O-])cc1)c1ccccc1
inactive: dose: 12.5 mg/kg/injection, schedule: Q01DX009 (ip), vehicle: saline with Tween-80 102 % of control | dose: 25.0 mg/kg/injection, schedule: Q01DX009 (ip), vehicle: saline with Tween-80 109 % of control | dose: 50.0 mg/kg/injection, schedule: Q01DX009 (ip), vehicle: saline with Tween-80 98 % of control

COC(=O)c1ccccc1NC(=O)Nc1cccc(F)c1
inactive: [6] 95 % of control | [8] 101 % of control | [10] 113 % of control

CCCC(O)CN (centres undefined)
inactive: [15] 98 % of control | [16] 102 % of control | [17] 104 % of control | [18] 116 % of control

Nc1ccc2c(c1)C(=O)c1c(F)ccc(F)c1-2
inactive: [15] 98 % of control | [16] 96 % of control | [17] 104 % of control | [18] 115 % of control

CC(O)CN(CC(C)O)c1ccccc1 (centres undefined)
inactive: [12] 102 % of control | [19] 102 % of control | [13] 94 % of control | [20] 103 % of control | [21] 101 % of control

N#CC(=N)C(C#N)=Nc1c(O)[nH]c2ccccc12
inactive: dose: 25.0 mg/kg/injection, schedule: Q01DX001 (ip), vehicle: DMSO 93 % of control | dose: 25.0 mg/kg/injection, schedule: Q01DX009 (ip), vehicle: DMSO 92 % of control | dose: 50.0 mg/kg/injection, schedule: Q01DX001 (ip), vehicle: DMSO 97 % of control | dose: 50.0 mg/kg/injection, schedule: Q01DX009 (ip), vehicle: DMSO 91 % of control | dose: 100.0 mg/kg/injection, schedule: Q01DX001 (ip), vehicle: DMSO 97 % of control and 102 % of control

Cc1nc2ccccc2cc1CO
inactive: [19] 105 % of control | [20] 102 % of control | [21] 102 % of control

Nc1ccc2c(c1)/C(=N/O)c1cc(Br)ccc1-2
inactive: [16] 110 % of control | [17] 102 % of control | [18] 100 % of control

CCCCCCCC/C=C\CCCCCCCC(=O)OC
inactive: [12] 91 % of control | [19] 96 % of control | [13] 92 % of control | [20] 100 % of control | [14] 95 % of control | [21] 98 % of control

CC1(C)CC2(OC2c2cccc([N+](=O)[O-])c2)C(=O)c2ccccc21 (centres undefined)
inactive: [2] 90 % of control | [3] 95 % of control | dose: 400.0 mg/kg/injection, schedule: Q01DX001 (ip), vehicle: Klucel (hydroxypropylcellulose) (HPC) 92 % of control

O=C(NC1CCCCC1)c1csnn1
inactive: dose: 75.0 mg/kg/injection, schedule: Q01DX001 (ip), vehicle: other 89 % of control | dose: 150.0 mg/kg/injection, schedule: Q01DX001 (ip), vehicle: other 97 % of control

Nc1ccc(Cc2cc(=O)[nH]c(=O)[nH]2)cc1[N+](=O)[O-]
inactive: dose: 25.0 mg/kg/injection, schedule: Q01DX001 (ip), vehicle: Klucel (hydroxypropylcellulose) (HPC) 98 % of control | [1] 107 % of control | [2] 88 % of control | [3] 88 % of control
